Measurements published in ChEMBL document CHEMBL1914343, “Recent progress in synthesis and bioactivity studies of indolizines” (Eur J Med Chem, 2011).
Values after ≈ are worked out from the molar mass of the structure shown. Active and inactive are the calls of the source. No cut-off for these calls is given here.

Key:
[1] = tested on: Radical scavenging activity; assay: Antioxidant activity assessed as DPPH radical scavenging activity at 667 uM after 15 mins; type: functional
[2] = molecular target: T1, Polyunsaturated fatty acid lipoxygenase ALOX15 (Oryctolagus cuniculus, UniProt P12530); assay: Inhibition of rabbit reticulocytes arachidonate 15-lipoxygenase
T1 sequence (P12530 whole entry): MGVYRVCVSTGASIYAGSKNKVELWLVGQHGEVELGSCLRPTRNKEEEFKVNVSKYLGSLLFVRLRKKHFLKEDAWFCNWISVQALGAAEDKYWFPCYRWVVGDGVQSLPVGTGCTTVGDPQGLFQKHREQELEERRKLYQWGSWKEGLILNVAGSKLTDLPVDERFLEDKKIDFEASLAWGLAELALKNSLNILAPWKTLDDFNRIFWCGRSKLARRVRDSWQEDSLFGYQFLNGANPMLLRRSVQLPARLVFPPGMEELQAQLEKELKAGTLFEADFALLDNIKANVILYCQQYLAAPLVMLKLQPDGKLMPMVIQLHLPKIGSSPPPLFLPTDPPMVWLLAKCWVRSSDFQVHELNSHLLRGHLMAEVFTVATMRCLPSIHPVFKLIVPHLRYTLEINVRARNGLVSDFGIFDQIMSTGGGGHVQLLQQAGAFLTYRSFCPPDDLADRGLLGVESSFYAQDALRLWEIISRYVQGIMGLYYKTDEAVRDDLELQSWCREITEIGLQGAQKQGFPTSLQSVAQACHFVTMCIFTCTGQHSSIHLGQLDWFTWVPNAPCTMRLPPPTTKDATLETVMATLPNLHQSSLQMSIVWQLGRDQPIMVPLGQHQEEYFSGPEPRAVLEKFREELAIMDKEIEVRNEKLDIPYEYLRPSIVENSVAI

[3] = Inhibition of soybean arachidonate 15-lipoxygenase; set-up: species or system Glycine max
[4] = Antioxidant activity assessed as inhibition of lipid peroxidation after 30 mins; type: functional
Mus musculus [5] = assay: Antiinflammatory activity in […] mouse assessed as inhibition of carrageenan-induced edema after 2 hrs relative to control; type: functional
Candida albicans = assay: Antifungal activity against Candida albicans at 100 ug/mL; type: functional, organism-based
Streptomyces albus = assay: Antibacterial activity against Streptomyces albus at 100 ug/mL; type: functional, organism-based
Escherichia coli = assay: Antibacterial activity against Escherichia coli at 100 ug/mL; type: functional, organism-based
Aspergillus flavus = assay: Antifungal activity against Aspergillus flavus at 100 ug/mL; type: functional, organism-based
Mus musculus [6] = assay: Antiinflammatory activity in […] mouse assessed as inhibition of carrageenan-induced edema after 3 hrs relative to control; type: functional
[7] = tested on: Mycobacterium tuberculosis; assay: Antimycobacterial activity against Mycobacterium tuberculosis H37Rv ATCC 27294 at 6.25 ug/mL by microplate alamar blue assay; type: functional
[8] = tested on: Mycobacterium tuberculosis; assay: Antimycobacterial activity against Mycobacterium tuberculosis H37Rv ATCC 27294 by microplate alamar blue assay; type: functional
Histamine H3 receptor [9] = molecular target: Histamine H3 receptor (Homo sapiens, UniProt Q9Y5N1); assay: Antagonist activity at human histamine H3 receptor expressed in […] cells; type: functional, cell-based, SK-N-MC; settings: read-out: pA2 (converted)
[10] = Half life in human liver microsomes; type: ADME, Microsome
[11] = Apparent permeability across human Caco2 cells; type: ADME, cell-based; settings: Caco-2
Histamine H3 receptor [12] = molecular target: Histamine H3 receptor (Rattus norvegicus, UniProt Q9QYN8); assay: Antagonist activity at rat histamine H3 receptor expressed in […] cells; type: functional, cell-based, SK-N-MC; settings: read-out: pA2 (converted)
Albumin = Albumin (Homo sapiens, UniProt P02768); assay: Binding affinity to human serum albumin; type: ADME; settings: isolated protein
Substance-P receptor = Substance-P receptor (Homo sapiens, UniProt P25103); assay: Antagonist activity at human NK1 receptor expressed in CHO cells assessed as inhibition of SP-induced intracellular Ca2+ increase by Fura-2 assay; type: functional, cell-based; settings: read-out: pA2 (converted)
Substance-K receptor = molecular target: T2, Substance-K receptor (Homo sapiens, UniProt P21452); assay: Antagonist activity at human NK2 receptor expressed in CHO cells assessed as inhibition of Neurokinin A-induced increase in intracellular Ca2+ increase by Fura-2 assay; type: functional, cell-based; settings: read-out: pA2 (converted)
T2 sequence (P21452 whole entry): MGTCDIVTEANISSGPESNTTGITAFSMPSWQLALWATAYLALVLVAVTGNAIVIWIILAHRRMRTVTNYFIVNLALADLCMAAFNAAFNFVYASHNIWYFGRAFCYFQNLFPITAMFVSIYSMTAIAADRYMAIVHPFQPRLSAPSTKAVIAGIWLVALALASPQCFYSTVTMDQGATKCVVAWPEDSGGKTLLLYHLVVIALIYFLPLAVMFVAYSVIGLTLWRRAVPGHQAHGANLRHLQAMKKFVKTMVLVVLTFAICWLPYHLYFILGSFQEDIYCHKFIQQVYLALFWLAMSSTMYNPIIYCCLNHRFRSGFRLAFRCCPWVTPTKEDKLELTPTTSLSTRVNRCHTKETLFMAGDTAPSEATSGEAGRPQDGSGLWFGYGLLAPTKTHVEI

Plasmodium falciparum = assay: Antiplasmodial activity against Plasmodium falciparum; type: functional
[13] = tested on: Trypanosoma brucei rhodesiense; assay: Antitrypanosomal activity against Trypanosoma brucei rhodesiense; type: functional
Trypanosoma cruzi = assay: Antitrypanosomal activity against Trypanosoma cruzi; type: functional
Leishmania donovani = assay: Antileishmanial activity against Leishmania donovani; type: functional
Pichia kudriavzevii = assay: Antifungal activity against Candida krusei at 32 ug/mL; type: functional, organism-based
Estrogen receptor = molecular target: T3, Estrogen receptor (Homo sapiens, UniProt P03372)
T3 sequence (P03372 whole entry): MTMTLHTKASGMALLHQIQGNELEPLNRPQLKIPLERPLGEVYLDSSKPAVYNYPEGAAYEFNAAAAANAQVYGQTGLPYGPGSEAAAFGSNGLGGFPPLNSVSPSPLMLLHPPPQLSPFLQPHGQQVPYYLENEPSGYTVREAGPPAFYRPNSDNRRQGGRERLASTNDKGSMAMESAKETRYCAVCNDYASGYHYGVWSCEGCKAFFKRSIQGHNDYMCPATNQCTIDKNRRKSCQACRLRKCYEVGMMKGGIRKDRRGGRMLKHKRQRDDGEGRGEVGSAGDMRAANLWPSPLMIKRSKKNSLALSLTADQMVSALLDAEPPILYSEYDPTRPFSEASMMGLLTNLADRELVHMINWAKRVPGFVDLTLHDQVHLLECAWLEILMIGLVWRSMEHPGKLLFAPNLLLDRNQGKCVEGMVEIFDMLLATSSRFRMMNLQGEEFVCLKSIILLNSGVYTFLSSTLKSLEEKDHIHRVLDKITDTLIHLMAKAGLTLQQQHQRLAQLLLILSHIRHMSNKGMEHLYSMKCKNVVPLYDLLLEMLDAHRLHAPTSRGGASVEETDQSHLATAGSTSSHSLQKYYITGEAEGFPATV
Description: Agonist activity at estrogen receptor

[14] = tested on: Mycobacterium tuberculosis; assay: Antimycobacterial activity against Mycobacterium tuberculosis H37Rv by agar diffusion method; type: functional
[15] = tested on: Mycobacterium tuberculosis; assay: Ratio MIC for ethambutol to compound for Mycobacterium tuberculosis H37Rv by agar diffusion method; type: functional
[16] = tested on: Mycobacterium tuberculosis; assay: Ratio MIC for ciprofloxacin to compound for Mycobacterium tuberculosis H37Rv by agar diffusion method; type: functional

Chain of Substance-P receptor (P25103 whole entry): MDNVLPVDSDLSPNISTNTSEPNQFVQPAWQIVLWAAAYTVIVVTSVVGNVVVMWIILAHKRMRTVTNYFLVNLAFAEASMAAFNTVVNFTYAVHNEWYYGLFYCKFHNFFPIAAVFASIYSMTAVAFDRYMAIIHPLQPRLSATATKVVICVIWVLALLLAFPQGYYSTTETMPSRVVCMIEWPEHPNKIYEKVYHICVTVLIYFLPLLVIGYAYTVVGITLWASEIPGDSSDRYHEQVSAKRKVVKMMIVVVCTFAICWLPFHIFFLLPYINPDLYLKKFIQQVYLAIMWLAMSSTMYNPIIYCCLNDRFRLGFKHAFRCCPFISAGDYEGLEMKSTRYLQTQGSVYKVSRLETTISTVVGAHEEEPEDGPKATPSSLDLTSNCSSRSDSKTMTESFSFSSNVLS
Chain of Albumin (P02768 whole entry): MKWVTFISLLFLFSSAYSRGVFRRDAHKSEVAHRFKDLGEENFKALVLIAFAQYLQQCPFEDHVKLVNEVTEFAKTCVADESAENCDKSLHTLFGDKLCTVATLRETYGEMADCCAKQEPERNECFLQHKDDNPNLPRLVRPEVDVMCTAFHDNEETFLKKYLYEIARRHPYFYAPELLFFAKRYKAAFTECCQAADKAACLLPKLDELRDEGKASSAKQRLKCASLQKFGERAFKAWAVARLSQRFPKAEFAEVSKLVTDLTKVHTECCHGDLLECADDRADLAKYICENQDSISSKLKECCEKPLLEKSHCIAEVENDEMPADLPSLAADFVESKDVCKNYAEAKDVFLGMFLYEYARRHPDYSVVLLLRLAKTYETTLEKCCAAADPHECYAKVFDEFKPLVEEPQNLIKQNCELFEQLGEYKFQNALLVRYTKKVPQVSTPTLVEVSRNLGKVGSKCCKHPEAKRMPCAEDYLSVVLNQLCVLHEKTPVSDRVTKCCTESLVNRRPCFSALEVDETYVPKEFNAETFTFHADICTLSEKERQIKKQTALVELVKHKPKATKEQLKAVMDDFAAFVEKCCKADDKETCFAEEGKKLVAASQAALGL
Chain of Histamine H3 receptor (Homo sapiens, UniProt Q9Y5N1) (Q9Y5N1 whole entry): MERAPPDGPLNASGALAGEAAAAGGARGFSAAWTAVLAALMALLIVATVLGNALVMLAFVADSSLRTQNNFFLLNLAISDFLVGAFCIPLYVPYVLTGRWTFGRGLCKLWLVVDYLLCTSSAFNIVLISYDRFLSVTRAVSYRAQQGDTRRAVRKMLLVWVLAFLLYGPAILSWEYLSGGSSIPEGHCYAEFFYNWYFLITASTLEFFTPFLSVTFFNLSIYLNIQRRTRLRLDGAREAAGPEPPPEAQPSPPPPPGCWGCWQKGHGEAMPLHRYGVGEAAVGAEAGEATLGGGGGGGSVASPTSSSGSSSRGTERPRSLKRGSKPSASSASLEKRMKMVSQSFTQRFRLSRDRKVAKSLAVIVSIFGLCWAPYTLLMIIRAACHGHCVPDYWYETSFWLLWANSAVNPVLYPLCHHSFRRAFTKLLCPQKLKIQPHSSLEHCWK
Chain of Histamine H3 receptor (Rattus norvegicus, UniProt Q9QYN8) (Q9QYN8 whole entry): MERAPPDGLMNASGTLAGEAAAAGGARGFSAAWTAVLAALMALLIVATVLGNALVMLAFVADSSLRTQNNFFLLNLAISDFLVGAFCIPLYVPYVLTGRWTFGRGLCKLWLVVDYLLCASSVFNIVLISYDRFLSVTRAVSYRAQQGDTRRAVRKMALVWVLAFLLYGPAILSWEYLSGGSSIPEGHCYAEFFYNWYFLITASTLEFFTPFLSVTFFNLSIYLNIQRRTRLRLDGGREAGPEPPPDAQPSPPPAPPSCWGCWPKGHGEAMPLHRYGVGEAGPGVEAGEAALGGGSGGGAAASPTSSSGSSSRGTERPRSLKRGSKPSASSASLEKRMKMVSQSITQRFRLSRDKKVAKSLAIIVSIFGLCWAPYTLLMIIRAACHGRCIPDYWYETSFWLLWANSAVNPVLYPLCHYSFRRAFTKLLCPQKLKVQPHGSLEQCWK

## COc1ccc(-c2c(-c3ccccc3)c(-c3ccccc3)n3ccc(C#N)cc23)cc1
[1]
  Activity: -0.9%
[2]
  IC50: 37 µM
[3]
  IC50: 20 µM
[4]
  IC50: > 100 µM

## COC(=O)c1cc(C(=O)c2cc3ccccc3o2)n2ccccc12
Mus musculus [5]
  inhibition (INH): 36%

## CC1=CC=CC2[C@@H]3C(=O)N(c4ccccc4)C(=O)[C@@H]3C(C(=O)c3cccs3)N12 (some centres undefined)
Candida albicans
  Activity: Active
Streptomyces albus
  Activity: Active
Escherichia coli
  Activity: Active
Aspergillus flavus
  Activity: Active

## N#Cc1cc(C(=O)c2cc3ccccc3o2)n2ccccc12
Mus musculus [6]
  inhibition (INH): 24%

## N#Cc1ccn2c(-c3ccccc3)c(-c3ccccc3)c(C(O)c3ccc(Cl)cc3)c2c1 (centres undefined)
[7]
  inhibition at 6.25 µg/mL: 95%
[3]
  IC50: 23 µM
[8]
  MIC: 6.25 µg/mL (≈ 14.4 µM)

## N#Cc1ccn2c(-c3ccccc3)c(-c3ccccc3)cc2c1
[7]
  inhibition at 6.25 µg/mL: 9%
[1]
  Activity: -0.2%
[2]
  IC50: 51 µM
[3]
  IC50: 30 µM
[4]
  IC50: > 100 µM

## CCOC(=O)C1(C#N)C(c2ccc(Cl)cc2)=C(C(=O)c2cccs2)N2C(C)=CC=CC21 (centres undefined)
Candida albicans
  Activity: Active
Streptomyces albus
  Activity: Active
Escherichia coli
  Activity: Active
Aspergillus flavus
  Activity: inactive

## c1ccn2cc(-c3ccc(OCCCN4CCCCC4)cc3)cc2c1
Histamine H3 receptor [9]
  Kb: 0.00316 µM
[10]
  half-life: 10 min
[11]
  Papp: 14.1 ×10⁻⁶ cm/s
Histamine H3 receptor [12]
  Kb: 0.0195 µM
Albumin
  Activity: 50%

## N#Cc1ccn2c(-c3ccccc3)c(-c3ccccc3)c(C(O)C3CCCCC3)c2c1 (centres undefined)
[3]
  IC50: 23 µM
[8]
  MIC: > 6.25 µg/mL

## COC(=O)C1=C2CCC(C(=O)N[C@@H](CCc3c[nH]c4ccccc34)C(=O)N(C)Cc3ccccc3)N2C(=O)C(NC(C)=O)C1 (some centres undefined)
Substance-P receptor
  Kb: 0.126 µM
Substance-K receptor
  Kb: 0.631 µM

## Cc1ccc(S(=O)(=O)Oc2c(-c3ccccc3)c(-c3ccccc3)n3ccc(C#N)cc23)cc1
[2]
  IC50: 25 µM
[3]
  IC50: 17 µM
[4]
  IC50: 3.64 µM

## N#Cc1ccn2c(-c3ccccc3)c(-c3ccccc3)c(C(O)c3ccccc3)c2c1 (centres undefined)
[7]
  inhibition at 6.25 µg/mL: 100%
[2]
  IC50: 48 µM
[3]
  IC50: 35 µM
Plasmodium falciparum
  MIC: 2.3 µg/mL (≈ 5.74 µM)
[13]
  MIC: 12 µg/mL (≈ 30 µM)
Trypanosoma cruzi
  MIC: 3.2 µg/mL (≈ 7.99 µM)
[4]
  IC50: 35.8 µM
[8]
  MIC: 6.25 µg/mL (≈ 15.6 µM)
Leishmania donovani
  MIC: 2.3 µg/mL (≈ 5.74 µM)
Pichia kudriavzevii
  Activity: inactive

## CCc1c(-c2ccc(O)cc2)c2ccc3cccc1n32
Estrogen receptor
  IC50: 0.0095 µM

## CC(C)Cc1ccc(C(C)C(=O)O)cc1 (centres undefined) [IBUPROFEN]
Mus musculus [6]
  inhibition (INH): 62%
Mus musculus [5]
  inhibition (INH): 59%

## COC(=O)C1=C2CCC(C(=O)N[C@@H](CCc3c[nH]c4ccccc34)C(=O)NCc3cc(C(F)(F)F)cc(C(F)(F)F)c3)N2C(=O)C(NC(C)=O)C1 (some centres undefined)
Substance-P receptor
  Kb: 0.1 µM

## Cc1ccc(C(O)c2c(-c3ccccc3)c(-c3ccccc3)n3ccc(C#N)cc23)cc1 (centres undefined)
[7]
  inhibition at 6.25 µg/mL: 90%
[3]
  IC50: 22 µM
[8]
  MIC: 6.25 µg/mL (≈ 15.1 µM)

## Cc1c(-c2ccc(OCCCN3CCCCC3)cc2)cc2ccccn12
[10]
  half-life: 54 min

## COC(=O)C1=C2CCC(C(=O)N[C@@H](CCc3c[nH]c4ccccc34)C(=O)N(C)Cc3ccccc3)N2C(=O)C(NC(=O)OCc2ccccc2)C1 (some centres undefined)
Substance-P receptor
  Kb: 0.2 µM
Substance-K receptor
  Kb: 0.2 µM

## COc1c(-c2ccccc2)c(-c2ccccc2)n2ccc(C#N)cc12
[1]
  Activity: -0.6%
[2]
  IC50: 77 µM
[3]
  IC50: 33 µM
[4]
  IC50: 22 µM

## c1csc(-c2cc3ccccn3c2)c1
Candida albicans
  Activity: Active
Streptomyces albus
  Activity: Active
Escherichia coli
  Activity: Active
Aspergillus flavus
  Activity: inactive

## CCOC(=O)c1c(-c2ccc(Cl)cc2)cc2c3ccccc3ccn12
[14]
  MIC: 2.3 µM (≈ 0.805 µg/mL)

## N#Cc1ccn2c(-c3ccccc3)c(-c3ccccc3)c(OS(=O)(=O)C(F)(F)F)c2c1
[1]
  Activity: 79.5%
[2]
  IC50: 59 µM
[3]
  IC50: 46 µM
[4]
  IC50: 0.6 µM

## N#Cc1c(-c2ccc(F)cc2)c([N+](=O)[O-])c2c3ccccc3ccn12
[14]
  MIC: 3.9 µM (≈ 1.29 µg/mL)

## CC(=O)Oc1c(-c2ccccc2)c(-c2ccccc2)n2ccc(C#N)cc12
[1]
  Activity: -0.5%
[2]
  IC50: 75 µM
[3]
  IC50: 31 µM
[4]
  IC50: 0.15 µM

## CCOC(=O)c1c(-c2ccc(F)cc2)cc2c3ccccc3ccn12
[14]
  MIC: 1 µM (≈ 0.333 µg/mL)
[15]
  Ratio: 7.6
[16]
  Ratio: 4.7

## CC(=O)c1c(-c2ccccc2)c(-c2ccccc2)n2ccc(C#N)cc12
[7]
  inhibition at 6.25 µg/mL: 21%
[2]
  IC50: 44 µM
[3]
  IC50: 23 µM
[4]
  IC50: > 100 µM
